Like-named read-outs stand apart in the source and are kept apart here.
Key:
[1] = system: HL60 cells; experiment: Immunoblotting of cell lysates for cleaved PARP; format: cell-based; conditions: HL-60; 0.13 μM azacitidine, 0.13 μM CNDAC; 48 h-96 h total treatment
Method: Samples were collected at various times (indicated) after CNDAC addition. Cells were lysed, fractionated by SDS-PAGE, transferred to nitrocellulose and probed for cleaved PARP (a marker of apoptosis). Data is representative of two independent experiments.
HL-60 cells were treated with DMSO, 0.13 μM azacitidine, 0.13 μM CNDAC or both agents (AC). The schedule involved 24 h azacitidine or DMSO pretreatment followed by the addition of CNDAC or DMSO for the indicated times. Cells were harvested after 48 h-96 h total treatment time. The resulting lysates (20 μg) were resolved on 12% acrylamide Bis-Tris gels, transferred to nitrocellulose membranes and probed with the antibodies shown in FIG. 3. […] Cleaved PARP was also seen in the combination treatment.

[2] = system: HL60 cells; experiment: Cell cycle analysis (propidium iodide, flow cytometry); format: cell-based; conditions: azacitidine 128 nM 72 and 96 hours, CNDAC 133 nM by 48 hours
Method: (§1) (A) HL60 cells were treated with 128 nM azacitidine for 24 hours followed by 128 nM azacitidine and 133 nM CNDAC for a further 48 hours. Cells were fixed and DNA stained with propidium iodide. Single agent controls were also included. (B) HL60 cells were treated with 128 nM azacitidine for 24 hours followed by 128 nM azacitidine and 133 nM CNDAC for a further 48 hours. Cells were stained with annexin V that detected apoptotic cells and propidium iodide to detect viable cells. Single agent controls were also included. Data is the average of two samples and representative of at least two independent experiments.
(A) HL60 cells were treated with 128 nM azacitidine for 24 hours followed by 128 nM azacitidine and 133 nM CNDAC for a further 72 hours. Cells were fixed and DNA stained with propidium iodide. Single agent controls were also included. […] Cells were stained with annexin V that detected apoptotic cells and propidium iodide to detect viable cells. […]
For combination analysis, cells were treated with azacitidine for 24 hours followed by a further 48 or 72 hours with azacitidine and CNDAC. […] Prior to analysis cells were washed twice in PBS containing 1% BSA followed by staining with propidium iodide (50 μg/ml) and ribonuclease A (50 μg/ml) in PBS containing 0.1% Triton X-100 and the cell cycle profile was determined by flow cytometry.

[3] = system: HL60 cells; experiment: Annexin V staining (apoptosis, flow cytometry); format: cell-based; conditions: for apoptotic cells (annexin V): 96 hours total treatment, azacitidine 128 nM, CNDAC 133 nM for 72 hours; for proportion of apoptotic cells (annexin V, in words): azacitidine 72 and 96 hours, CNDAC 48 or 72 hours
Method: as §1
as §1, with “72” for “48”
Single agent treatments were also performed as controls.

[4] = system: cell line that is resistant to cytarabine; conditions: cited from earlier work
[5] = system: colon cancer; conditions: model of colon cancer; cited from earlier work
[6] = phase I, patients with a variety of cancers; cited from earlier work

| Structure (SMILES) | induction of cleaved PARP (marker of apoptosis) [1] | effect on cell cycle profile (in words) [2] | apoptotic cells (annexin V) [3] [%] | proportion of apoptotic cells (annexin V, in words) [3] | IC50 ([4]; after 5-azacitidine (upregulation of dCK)) [µM] | IC50 ([4]; before 5-azacitidine) [µM] | anticancer activity [5] | dose limiting toxicity [6] | tolerability [6] |
| --- | --- | --- | --- | --- | --- | --- | --- | --- | --- |
| N#C[C@H]1[C@H](O)[C@@H](CO)O[C@H]1n1ccc(N)nc1=O [CNDAC, 1-(2-C-Cyano-2-deoxy-β-D-arabino-pentafuranosyl)-cytosine] | induced cleaved PARP at later time points | accumulation of cells in G2/M | 16.5 | little effect |  |  |  |  |  |
| Nc1ccn([C@@H]2O[C@H](CO)[C@@H](O)[C@@H]2O)c(=O)n1 [cytarabine] |  |  |  |  | 0.55 | 12.5 |  |  |  |
| CCCCCCCCCCCCCCCC(=O)Nc1ccn(C2O[C@H](CO)[C@@H](O)[C@@H]2C#N)c(=O)n1 (stereo partly drawn) [(I), 1-(2-C-cyano-2-dioxy-β-D-arabino-pentofuranosyl)-N^4-palmitoyl cytosine] |  |  |  |  |  |  | strong anticancer activity | myelosuppression | well tolerated |
| Nc1ncn([C@@H]2O[C@H](CO)[C@@H](O)[C@H]2O)c(=O)n1 [azacitidine, 4-amino-1-β-D-ribofuranosyl-s-triazin-2(1H)-one, reference compound] | small induction in cleaved PARP at early time points | accumulation of cells in sub-G1, G2/M, and >G2/M | 30.5 | small increase in the proportion of apoptotic cells |  |  |  |  |  |

— US8530445B2, “Combinations of sapacitabine or CNDAC with DNA methyltransferase inhibitors such as decitabine and procaine” (Cyclacel Limited, priority 2008, dated 2013)
